According to patent publication US20260083131A1, “AN HERBICIDAL COMBINATION, COMPOSITION AND METHOD OF CONTROLLING WEEDS USING THE SAME” (priority 2022, published 2026):

Assays:
[1] = test system: weedy Brachiaria decumbens; experiment: Greenhouse trial, post-emergence herbicidal activity on Brachiaria decumbens; assay type: in vivo; conditions: Table 3
Protocol: (§1) The expected efficacy of a combination of L-glufosinate ammonium and the other herbicides was calculated using the well-established Colby method. Any difference between the observed and “expected” efficacy could be attributed to synergy between the two compounds.
(§2) In the Colby method, the expected (or predicted) response of a combination of herbicides is calculated by taking the product of the observed response for each individual component of the combination when applied alone, divided by 100, and subtracting this value from the sum of the observed response for each component when applied alone. An unexpected enhancement in efficacy of the combination is then determined by comparing the observed response of the combination to the expected (or predicted) response as calculated from the observed response of each individual component alone. If the observed response of the combination is greater than the expected (or predicted) response, or stated conversely, if the difference between the observed and expected response is greater than zero, then the combination is said to be synergistic or unexpectedly effective (Colby, S. R., Weeds, 1967(15), p. 20-22). The Colby method requires only a single dose of each herbicide applied alone and the mixture of both doses. The formula used to calculate the expected efficacy (EE) which was compared with the observed efficacy (OE) to determine the efficacy of the present disclosure is explained hereinbelow:
(§3) Methodology: Greenhouse trials were conducted to evaluate the efficacy of the combination comprising L-glufosinate ammonium and imidazolinone herbicides—imazethapyr, imazamox, imazapic and imazapic+imazapyr—on weeds Borreria verticilata, Eleusine indica, Brachiaria decumbens, Spermacoce latifolia and Glycine max.
(§4) The soil used was sandy clay loam—sand: 68.0%; silt: 8.0%; clay: 24.0%.
(§5) All treatments were in 3 replications per treatment with a spray volume of about 150 L/ha.
The percentage efficacy was calculated after 7, 14, 21, 28, 35 days of applications (DAA). The target weed was weedy Brachiaria decumbens, and the concentration of the herbicide and the results are recorded in Table 3.

weedy Eleusine indica = experiment: Greenhouse trial, post-emergence herbicidal activity on Eleusine indica; assay type: in vivo; conditions: Table 4
Protocol: as §1, §2, §3, §4, §5
The percentage efficacy was calculated after 7, 14, 21, 28, 35 days of applications (DAA). The target weed was weedy Eleusine indica, and the concentration of the herbicide and the results are recorded in Table 4.

Spermacoce latifolia = experiment: Greenhouse trial, post-emergence herbicidal activity on Spermacoce latifolia; assay type: in vivo; conditions: Table 5
Protocol: as §1, §2, §3, §4, §5
The percentage efficacy was calculated after 14, 21, 28, 35 days of applications (DAA). The target weed was Spermacoce latifolia, and the concentration of the herbicide and the results are recorded Table 5.

weedy Glycine max = experiment: Greenhouse trial, post-emergence herbicidal activity on Glycine max; assay type: in vivo; conditions: Table 6
Protocol: as §1, §2, §3, §4, §5
The percentage efficacy was calculated after 14, 21, 28, 35 days of applications (DAA). The target weed was weedy Glycine max, and the concentration of the herbicide and the results are recorded in Table 6.

Borreria verticillata = experiment: Greenhouse trial, post-emergence herbicidal activity on Borreria verticillata; assay type: in vivo
Protocol: as §1, §2, §3, §4, §5
The percentage efficacy was calculated after 3, 7, 14, 21, 28 and 35 days of applications (DAA). The target weed was Borreria verticillata, and the concentration of the herbicide and the results are recorded in Table 1.
The percentage efficacy was calculated after 3 days of applications (DAA). The target weed was Borreria verticillata, and the concentration of the herbicide and the results are recorded in Table 2.
The percentage efficacy was calculated after 3, 7, 14, 21, 28 and 35 days of applications (DAA). The target weed was Borreria verticillata, and the concentration of the herbicide and the results are recorded Table 7.

[2] = test system: Viola arvensis, Bromus spp., Lolium spp., Agropyron repens and Urtica urens; conditions: reported by Hoechst et al., 1991; cited from earlier work

## CCc1cnc(C2=NC(C)(C(C)C)C(=O)N2)c(C(=O)O)c1 (stereo not drawn) [Imazethapyr, imazethapyr]
[1]; 7 DAA
  Observed efficacy (%) of Imazethapyr, (75 g a.i./ha): 10%
[1]; 14 DAA
  Observed efficacy (%) of Imazethapyr, (75 g a.i./ha): 10%
[1]; 21 DAA
  Observed efficacy (%) of Imazethapyr, (75 g a.i./ha): 15%
[1]; 28 DAA
  Observed efficacy (%) of Imazethapyr, (75 g a.i./ha): 10%
[1]; 35 DAA
  Observed efficacy (%) of Imazethapyr, (75 g a.i./ha): 5%
Weedy Eleusine indica; 7 DAA
  Observed efficacy (%) of Imazethapyr, (75 g a.i./ha): 8.3%
Weedy Eleusine indica; 14 DAA
  Observed efficacy (%) of Imazethapyr, (75 g a.i./ha): 12%
Weedy Eleusine indica; 21 DAA
  Observed efficacy (%) of Imazethapyr, (75 g a.i./ha): 12.7%
Weedy Eleusine indica; 28 DAA
  Observed efficacy (%) of Imazethapyr, (75 g a.i./ha): 12.7%
Weedy Eleusine indica; 35 DAA
  Observed efficacy (%) of Imazethapyr, (75 g a.i./ha): 10%
Spermacoce latifolia; 14 DAA
  Observed efficacy (%) of Imazethapyr, (75 g a.i./ha): 30%
Spermacoce latifolia; 21 DAA
  Observed efficacy (%) of Imazethapyr, (75 g a.i./ha): 36.7%
Spermacoce latifolia; 28 DAA
  Observed efficacy (%) of Imazethapyr, (75 g a.i./ha): 30%
Spermacoce latifolia; 35 DAA
  Observed efficacy (%) of Imazethapyr, (75 g a.i./ha): 26.7%
Weedy Glycine max; 14 DAA
  Observed efficacy (%) of Imazethapyr, (75 g a.i./ha): 10%
Weedy Glycine max; 21 DAA
  Observed efficacy (%) of Imazethapyr, (75 g a.i./ha): 20%
Weedy Glycine max; 28 DAA
  Observed efficacy (%) of Imazethapyr, (75 g a.i./ha): 20%
Weedy Glycine max; 35 DAA
  Observed efficacy (%) of Imazethapyr, (75 g a.i./ha): 15%

## CP(=O)(O)CC[C@H](N)C(=O)O.N [L-glufosinate ammonium, ammonium (2S)-2-amino-4-(methylphosphinato)butyric acid]
Borreria verticillata; 3 DAA, Table 1
  Observed efficacy (%) of L-glufosinate ammonium (Glufosinate-P-ammonium) (150 g a.i./ha): 50%
Borreria verticillata; 3 DAA, Table 2
  Observed efficacy (%) of L-glufosinate ammonium (Glufosinate-P-ammonium) (150 g a.i./ha): 55%
Borreria verticillata; 3 DAA, Table 7
  Observed efficacy (%) of L-glufosinate ammonium (Glufosinate-P-ammonium) (150 g a.i./ha): 50%
Borreria verticillata; 7 DAA, Table 1
  Observed efficacy (%) of L-glufosinate ammonium (Glufosinate-P-ammonium) (150 g a.i./ha): 80%
Borreria verticillata; 7 DAA, Table 7
  Observed efficacy (%) of L-glufosinate ammonium (Glufosinate-P-ammonium) (150 g a.i./ha): 80%
Borreria verticillata; 14 DAA, Table 1
  Observed efficacy (%) of L-glufosinate ammonium (Glufosinate-P-ammonium) (150 g a.i./ha): 95%
Borreria verticillata; 14 DAA, Table 7
  Observed efficacy (%) of L-glufosinate ammonium (Glufosinate-P-ammonium) (150 g a.i./ha): 95%
Borreria verticillata; 21 DAA, Table 1
  Observed efficacy (%) of L-glufosinate ammonium (Glufosinate-P-ammonium) (150 g a.i./ha): 90%
Borreria verticillata; 21 DAA, Table 7
  Observed efficacy (%) of L-glufosinate ammonium (Glufosinate-P-ammonium) (150 g a.i./ha): 90%
Borreria verticillata; 28 DAA, Table 1
  Observed efficacy (%) of L-glufosinate ammonium (Glufosinate-P-ammonium) (150 g a.i./ha): 90%
Borreria verticillata; 28 DAA, Table 7
  Observed efficacy (%) of L-glufosinate ammonium (Glufosinate-P-ammonium) (150 g a.i./ha): 90%
Borreria verticillata; 35 DAA, Table 1
  Observed efficacy (%) of L-glufosinate ammonium (Glufosinate-P-ammonium) (150 g a.i./ha): 85%
Borreria verticillata; 35 DAA, Table 7
  Observed efficacy (%) of L-glufosinate ammonium (Glufosinate-P-ammonium) (150 g a.i./ha): 85%
[1]; 7 DAA
  Observed efficacy (%) of L-glufosinate ammonium, (150 g a.i./ha): 46%
[1]; 14 DAA
  Observed efficacy (%) of L-glufosinate ammonium, (150 g a.i./ha): 54.3%
[1]; 21 DAA
  Observed efficacy (%) of L-glufosinate ammonium, (150 g a.i./ha): 53.3%
[1]; 28 DAA
  Observed efficacy (%) of L-glufosinate ammonium, (150 g a.i./ha): 48.3%
[1]; 35 DAA
  Observed efficacy (%) of L-glufosinate ammonium, (150 g a.i./ha): 42%
Weedy Eleusine indica; 7 DAA
  Observed efficacy (%) of L-glufosinate ammonium, (150 g a.i./ha): 43.3%
Weedy Eleusine indica; 14 DAA
  Observed efficacy (%) of L-glufosinate ammonium, (150 g a.i./ha): 41.3%
Weedy Eleusine indica; 21 DAA
  Observed efficacy (%) of L-glufosinate ammonium, (150 g a.i./ha): 37.3%
Weedy Eleusine indica; 28 DAA
  Observed efficacy (%) of L-glufosinate ammonium, (150 g a.i./ha): 28.3%
Weedy Eleusine indica; 35 DAA
  Observed efficacy (%) of L-glufosinate ammonium, (150 g a.i./ha): 25.3%
Spermacoce latifolia; 14 DAA
  Observed efficacy (%) of L-glufosinate ammonium, (150 g a.i./ha): 56.7%
Spermacoce latifolia; 21 DAA
  Observed efficacy (%) of L-glufosinate ammonium, (150 g a.i./ha): 56.7%
Spermacoce latifolia; 28 DAA
  Observed efficacy (%) of L-glufosinate ammonium, (150 g a.i./ha): 58.3%
Spermacoce latifolia; 35 DAA
  Observed efficacy (%) of L-glufosinate ammonium, (150 g a.i./ha): 58.3%
Weedy Glycine max; 14 DAA
  Observed efficacy (%) of L-glufosinate ammonium, (150 g a.i./ha): 60%
Weedy Glycine max; 21 DAA
  Observed efficacy (%) of L-glufosinate ammonium, (150 g a.i./ha): 63.3%
Weedy Glycine max; 28 DAA
  Observed efficacy (%) of L-glufosinate ammonium, (150 g a.i./ha): 63.3%
Weedy Glycine max; 35 DAA
  Observed efficacy (%) of L-glufosinate ammonium, (150 g a.i./ha): 52.7%

## COCc1cnc(C2=NC(C)(C(C)C)C(=O)N2)c(C(=O)O)c1 (stereo not drawn) [Imazamox, imazamox]
Borreria verticillata; 3 DAA, 21 g a.i./ha, Table 2
  Observed efficacy (%) of Imazamox (21 g a.i./ha): 10%

## Cc1cnc(C2=NC(=O)C(C)(C(C)C)N2)c(C(=O)O)c1 (stereo not drawn) [Imazapic, imazapic]
Borreria verticillata; 3 DAA, Table 1
  Observed efficacy (%) of Imazapic (59 g a.i./ha): 10%
Borreria verticillata; 7 DAA, Table 1
  Observed efficacy (%) of Imazapic (59 g a.i./ha): 20%
Borreria verticillata; 14 DAA, Table 1
  Observed efficacy (%) of Imazapic (59 g a.i./ha): 35%
Borreria verticillata; 21 DAA, Table 1
  Observed efficacy (%) of Imazapic (59 g a.i./ha): 30%
Borreria verticillata; 28 DAA, Table 1
  Observed efficacy (%) of Imazapic (59 g a.i./ha): 40%
Borreria verticillata; 35 DAA, Table 1
  Observed efficacy (%) of Imazapic (59 g a.i./ha): 60%

## CP(=O)(O)CCC(N)C(=O)O (racemic) [glufosinate, DL-homoalanin-4-yl(methyl)phosphinic acid]
[2]
  control of weed species Viola arvensis, Bromus spp., Lolium spp., Agropyron repens and Urtica urens: either not combated, or only weakly combated
